Data on 88 compounds can be found in a melting point compilation (Tetko et al.; mined from patent text by program, amines drawn as free bases though some values may be those of a salt).

Compound `O=C(O)C(=O)c1ccc(OCCCCc2cccnc2)cc1` registered a melting point of 163 to 165 °C.
In the case of `CC1NC(=O)NN=C1c1ccc2c(c1)CCC(=O)N2CCO` (stereo not drawn), the melting point was 237 to 243 °C.
In the case of `c1ccc2c3ccocc-3nc2c1` it was 109 to 111 °C; in that of `CC(=O)Nc1ccc(C=C2CCc3ncc(C)cc3C2=O)cc1`, 226 to 228 °C.
As for `COC1(OC)CCCCC1N=O` (stereo not drawn), the figure is 108 to 120 °C; as for `O=Cc1ccc2c3cccc4cccc(c5cccc1c52)c43`, 230 °C.
Regarding `COC(=O)N(CCCc1ccccc1)[C@H]1CC[C@H](c2ccc(O)cc2)CC1`, the melting point was 128 to 133 °C.
On to `CCOC(=O)C(Cc1cccnc1)c1nnc2c(CC(C)C)nc(-c3ccccc3)cn12` (stereo not drawn), for which the melting point is 110 to 111 °C.
As for `COc1cc(C=C2NC(=O)N(C)C2=O)ccc1O`, the figure is 227 to 228 °C; as for `O=Cc1cc(-c2ccc(F)cc2Cl)ccc1OC(F)(F)F`, 64 °C; as for `COc1ccc(S(=O)(=O)C2(C(=O)O)CCN(C(C)C)CC2)cc1`, 204 °C.
For `CC(=O)Oc1ccc(C(F)(F)C(F)(F)C(F)(F)I)cc1`, the melting point fell in the range of 75 to 81 °C.
For `COc1cc2[nH]nc(S(C)=O)c(=O)c2cc1OC` (stereo not drawn), the melting point turned out to be 303 °C.
Compound `CCOc1ccn2nc(SCc3ccccc3)nc2n1` returned a melting point of 115 to 117 °C.
As for `O=CCCCOC(c1ccccc1)(c1ccccc1)c1ccccc1`, the figure is 62 to 65 °C.
In the case of `O=C1NC(=S)NC(=O)C1c1ccccc1F` it was > 240 °C; in that of `CN(C(=O)c1cccs1)c1cccc(-c2nc(=O)c3ccccc3s2)n1`, 192 to 193 °C.
In turn, `O=C(NC1N=C(c2ccccc2F)c2ccccc2-n2cnnc21)OCc1ccccc1` (stereo not drawn) came in with a melting point of 123 °C.
On to `c1ccc(-c2ccc(CN3CCN(c4ccccc4)CC3)s2)cc1`, for which the melting point is 88 °C.
As for `CC(SC#N)C(=O)N(CC(=O)OC(C)(C)C)C1CCCC1` (stereo not drawn), the figure is 76 to 78 °C.
The compound `CN1CC(c2ccc(Nc3cc(-c4cccc(N5Cc6cc(C(C)(C)C)ccc6C5=O)c4CO)cn(C)c3=O)nc2)C1` showed a melting point of 201 to 202 °C.
In the case of `CC(C)C[C@H](NC(=O)Nc1cccc2ccccc12)C(=O)N[C@H]1CCOC1=O` it was 213 to 214 °C.
Regarding `COc1ccc(/C(=C\C=C\C(=O)NCCCCc2cccnc2)c2cccnc2)cc1`, the melting point was in the range of 108 to 110 °C.
Turning to `CCOc1ccc(-c2ccc(-c3ccc(C4CCC(c5c(F)cccc5F)=N4)cc3)cc2)s1` (stereo not drawn), the melting point fell in the range of 128 to 134 °C.
As for `NNC(=O)c1c(OCC(F)(F)F)cccc1OCC(F)(F)F`, the figure is 153 to 154 °C; as for `CC(=O)OC(C)(C)c1nnc(-c2ccc3occ(-c4cc(F)ccc4F)c3c2)o1`, 125 to 126 °C.
As for `COC(=O)c1cccc(-c2cccnc2)c1`, the figure is 125 to 126 °C.
As for `CCc1cc(C(=O)Nc2c(C)cccc2C)no1`, the figure is 82 °C.
In turn, `CC(=O)NNc1nc(-c2ccccc2)c2cc(Cl)ccc2n1` came in with a melting point of 228 °C.
As for `CCC(C)N(C)C(=O)c1cc2ccccc2c(-c2cccs2)n1` (stereo not drawn), the melting point is 146 °C.
Turning to `CC(=O)n1cc(C#N)c(-c2ccc(F)c(Cl)c2F)c1`, the melting point is 182 to 183 °C.
As for `CCCCC(=O)N[C@H]1CC[C@H](CCN2CCN(c3nccc4c3CCO4)CC2)CC1`, the figure is 180 °C; as for `Cc1oc(-c2ccccc2)nc1COc1ccc(CON=C(CC(=O)O)c2ccccc2)cc1`, 107 to 108 °C; as for `O=C(c1ccccc1)c1ccc2sc(NCCCO)nc2c1`, 162 °C.
In the case of `C[Si](C)(CC[Si](C)(C)c1ccc(C(F)(F)F)cc1)c1ccc(C(F)(F)F)cc1` it was 58 to 59 °C.
In the case of `CC(C)(C)c1cnc(-c2nn(-c3ccc(F)cc3F)c3c2C2CCC3C2)o1` (stereo not drawn) it was 58 to 60 °C; in that of `COc1cc2oc(=O)c(CCO)c(C)c2c(OC)c1OC`, 95 to 97 °C.
Regarding `CCCCCCCCCCCCCCCCCCNc1nc(N)nc(N)n1`, the melting point was 91 °C.
For `CCNC(=O)Nc1nc2cc(-c3cnc(OC)nc3)ccn2n1`, the melting point fell in the range of 243 to 248 °C.
As for `CCN1C(=O)C=C(c2ccc(Cl)c(Cl)c2)C1=O`, the melting point was in the range of 138 to 141 °C.
In the case of `CCCc1cn(CC(=O)OCC)nc1OCc1ccc2ccccc2n1` it was 82 to 83 °C; in that of `O=C(O)c1cccnc1Nc1cccc(Cl)c1`, 197 to 199 °C.
On to `O=C1C(O)=C(c2ccccc2)C(=O)C(O)=C1/C=C/c1ccccc1`, for which the melting point was 259 to 260 °C.
As for `CCOC(=O)c1ccc2oc3ccc(OC)cc3c(=O)c2c1`, the figure is 170 to 172 °C; as for `Cc1cccc(-c2[nH]c(C(C)C)nc2-c2ccc(F)c(-c3ccc(C)[nH]3)c2)n1`, 118 to 121 °C; as for `Cc1cnc2c(C#N)cnn2c1-c1ccc(Cl)cc1`, 154 to 157 °C.
As for `CC(C)(C)OC(=O)N1CCN(C(=O)OC[C@@]2(C)Cn3cc([N+](=O)[O-])nc3O2)CC1`, the figure is 211 to 212 °C; as for `CCCc1nn(-c2ccc(C(F)(F)F)cn2)cc1CCCOc1cccc(OC(C)(C)C(=O)O)c1`, 99 to 100 °C; as for `COc1cc(CC(=O)NCC(=O)N(CCC(=O)O)Cc2ccc(OC)c(OC)c2)ccc1NC(=O)Nc1ccccc1C`, 172 to 174 °C.
Compound `CCOC(OCC)c1cc(NC(c2ccccc2)(c2ccccc2)c2ccccc2)c(F)c(CC2CC2)n1` gave a melting point of 120 to 121 °C.
As to `CCNc1cc(-c2c[nH]c(N)n2)ccn1`, the melting point lay in the range of 200 to 202 °C.
`CC(=O)OC1CSC(Oc2cccnc2-c2c(C)noc2C)C(OC(C)=O)C1OC(C)=O` (stereo not drawn) yielded a melting point of 68 to 72 °C.
In the case of `CC1C(=O)N(c2ccc(Oc3ccccc3)cc2)C(=S)N1c1ccccc1` (stereo not drawn) it was 132 °C; in that of `CC1(C)C(=O)N([Si](C)(C)C)C(=O)N1[Si](C)(C)C`, 46 to 49 °C.
Consider `Cc1nn(C2=NNN(S)C2N)c2c1CCCC2` (stereo not drawn), for which the melting point lay in the range of 201 to 202 °C.
The compound `C[C@H](CS)C(=O)N1C(C(=O)O)CCC1c1ccccc1` (stereo partly drawn) registered a melting point of 138 to 142 °C.
With `O=c1c2c(OCC3CS3)cc(OCC3CS3)cc2oc2ccc3ccccc3c12` (stereo not drawn), the melting point was in the range of 225 to 226 °C.
In the case of `CC(=O)NCC(CCl)OC(C)=O` (stereo not drawn), the melting point was in the range of 68 to 69.5 °C.
In the case of `O=[N+]([O-])c1cccc2c(NCC34CCCN3CCC4)cccc12` it was 95 to 97 °C; in that of `C[C@@H](n1ncnn1)[C@](O)(Cn1ccnc1)c1ccc(F)cc1F`, 158 to 160 °C.
With `CC(C)(O)CCCCCc1cccc(CCc2ccc(O)c(CO)c2)c1`, the melting point lay within 73 to 75 °C.
Compound `COc1cc(N2CCOCC2)ccc1Nc1nc(Nc2ccc(OC)c3c2N(C)C(=O)CCC3)ncc1Cl` registered a melting point of 230 to 232 °C.
As for `CCCCc1nc2ccc(C(C)O)cc2c(=O)n1Cc1ccc(-c2ccccc2-c2nnn[nH]2)cc1` (stereo not drawn), the figure is 146 to 147 °C; as for `Cc1ccc(N=C(Nc2ccc(C)cc2)ON2C(C)(C)CC(O)CC2(C)C)cc1`, 124 to 126 °C; as for `CCC(Oc1ccccc1Br)C(=O)O` (stereo not drawn), 102 °C.
With `CN1CCN(C(=O)Nc2ccccc2NC(=O)c2cc(C(C)(C)C)c(O)c(C(C)(C)C)c2)CC1`, the melting point lay within 160 to 161 °C.
Turning to `C#Cc1cccc(C2=CC(=O)NC2=O)c1`, the melting point lay in the range of 129 to 131 °C.
In the case of `Nc1cccc2c1C(=O)N1CCC[C@H]1c1c(C(=O)OC3CCCCC3)ncn1-2` it was 211 to 212 °C.
In the case of `CCOC(=O)c1cccc(-c2nc(=O)c3ccccc3s2)n1` it was 170 to 172 °C; in that of `Cc1c(C2=NOC(CN3CCC(Cc4ccc(F)cc4)CC3)C2)cc2oc(=O)[nH]c2c1Cl` (stereo not drawn), 131 to 132 °C.
In the case of `CCOC(=O)/C(=C/c1ccc(OC)c(OC2CCCC2)c1)c1ccncc1` it was 109 to 110 °C.
Consider `C/C(=N\OC(=O)C1CCN(C(=O)OC(C)(C)C)CC1)[C@H]1CC[C@H]2[C@@H]3CCC4=CC(=O)CC[C@]4(C)[C@H]3CC[C@]12C`, for which the melting point lay in the range of 167 to 169 °C.
`COC(=O)CCc1ccc(N2CCN(c3ccc(C#N)cc3)C2=O)cc1` had a melting point of 160 to 162 °C.
Compound `Cc1ccccc1N1CCc2c(C)nc3ccccc3c21` had a melting point of 148 to 150 °C.
The compound `CCCc1nnc2n1-c1ccc(Cl)cc1C(c1ccccc1)=NC2` gave a melting point of 176 °C.
As for `COC(=O)C(CSC(=O)c1ccccc1)NC(=O)C(=O)NC(CSC(=O)c1ccccc1)C(=O)OC` (stereo not drawn), the melting point is 185 to 186 °C.
The compound `CNC(=O)C(=NOC)c1ccccc1CO` had a melting point of 100 to 102 °C.
Turning to `COc1cc(CCCn2ccnc2)ccc1OCc1coc(-c2cccs2)n1`, the melting point was 94 to 95 °C.
In turn, `Cc1cccc(CC(=O)Nc2cc(Cl)c(Cl)cc2[N+](=O)[O-])c1` gave a melting point of 122 to 124 °C.
In the case of `CCOC(=O)C(C#N)=NC(=CN1CCOCC1)CC` it was 127 to 128 °C; in that of `C[Si](C)(C)N1Cc2ccccc2P1(=O)c1ccccc1` (stereo not drawn), 90 to 94 °C; in that of `CCC(CC)c1ccc(Cl)c2nc3n(c12)CCCCN3c1ccc(C(=O)N(C)C)cc1C`, 113 to 114 °C.
As for `COC[C@@H](C)N1Cc2c(ccc(Cl)c2NC(=O)c2ccc(F)c(C(F)(F)F)c2)C1=O`, the melting point was 131 to 132 °C.
Compound `COc1cc(C(=O)NS(=O)(=O)c2ccccc2C)ccc1Cc1c(Cl)n(C)c2cc(Cl)c(CC(C)NC(=O)N(C)C)cc12` (stereo not drawn) came in with a melting point of 136 to 146 °C.
In the case of `C[C@@H](n1cnc2cc(C(F)(F)F)ccc2c1=O)[C@](O)(Cn1cncn1)c1ccc(F)cc1F` it was 142 to 143 °C; in that of `O=C(c1ccccc1)N1CCc2[nH]c3cccc(-c4ccccc4F)c3c2CC1`, 241 to 244 °C.
In the case of `COc1ccc(-c2nc3n(c2-c2ccc(OC)cc2)C(F)C(F)(F)S3)cc1` (stereo not drawn) it was 160 to 162 °C.
As to `CCNC(=O)c1cccc(-c2c(CC(=O)Nc3ccc(Cl)cc3C(F)(F)F)c(=O)oc3cc(Cl)c(C)cc23)c1`, the melting point was 220 to 222 °C.
